# Tests used:
# [1] = Stability of prodrugs in mouse plasma after 2 hours of treatment; assay type: in vitro ADME; details: 37° C.
# [2] = molecular target: hA2AAR (Homo sapiens (Human), UniProt P29274); experiment: Binding affinities for Adenosine receptors (hA2AAR); details: HEK 293 cells stably expressing hA2AAR
# [3] = molecular target: hA3AR (Homo sapiens (Human), UniProt P0DMS8); experiment: Binding affinities for Adenosine receptors (hA3AR); details: CHO cells stably expressing recombinant hA3AR
# hA3AR, sequence (P0DMS8 whole entry): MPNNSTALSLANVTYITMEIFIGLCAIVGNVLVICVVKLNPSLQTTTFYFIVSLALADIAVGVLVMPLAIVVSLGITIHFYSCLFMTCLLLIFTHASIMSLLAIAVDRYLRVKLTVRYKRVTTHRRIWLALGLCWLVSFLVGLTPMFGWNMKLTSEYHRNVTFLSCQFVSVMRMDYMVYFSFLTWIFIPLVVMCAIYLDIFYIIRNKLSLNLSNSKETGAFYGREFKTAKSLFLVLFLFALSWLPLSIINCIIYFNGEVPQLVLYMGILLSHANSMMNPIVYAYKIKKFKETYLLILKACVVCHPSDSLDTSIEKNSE
# [4] = molecular target: hA1AR (Homo sapiens (Human), UniProt P30542); experiment: Binding affinities for Adenosine receptors (hA1AR); details: CHO cells stably expressing recombinant hA1AR
# hA1AR, sequence (P30542 whole entry): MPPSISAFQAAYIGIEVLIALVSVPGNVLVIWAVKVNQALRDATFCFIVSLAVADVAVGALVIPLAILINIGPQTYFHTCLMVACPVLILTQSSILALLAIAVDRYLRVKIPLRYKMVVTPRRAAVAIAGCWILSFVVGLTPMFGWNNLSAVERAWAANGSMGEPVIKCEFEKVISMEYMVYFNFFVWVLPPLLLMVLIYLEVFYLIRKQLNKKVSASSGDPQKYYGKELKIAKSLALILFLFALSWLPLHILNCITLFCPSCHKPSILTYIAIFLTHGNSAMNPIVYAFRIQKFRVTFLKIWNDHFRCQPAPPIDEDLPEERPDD
# hA2AAR, sequence (P29274 whole entry): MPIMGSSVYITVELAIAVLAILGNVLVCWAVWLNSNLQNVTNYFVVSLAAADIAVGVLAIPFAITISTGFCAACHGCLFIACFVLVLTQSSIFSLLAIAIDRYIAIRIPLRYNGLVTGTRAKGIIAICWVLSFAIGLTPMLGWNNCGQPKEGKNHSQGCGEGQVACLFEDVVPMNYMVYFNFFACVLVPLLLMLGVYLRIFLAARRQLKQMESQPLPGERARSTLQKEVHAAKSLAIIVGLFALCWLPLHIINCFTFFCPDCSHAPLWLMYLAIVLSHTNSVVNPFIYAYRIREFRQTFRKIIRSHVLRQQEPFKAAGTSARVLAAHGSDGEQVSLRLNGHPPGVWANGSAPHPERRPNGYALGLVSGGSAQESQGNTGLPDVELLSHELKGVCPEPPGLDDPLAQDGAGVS
smiles,measurement,setting,value
"CC(C)[C@H](N)C(=O)OC1C(OC(=O)[C@@H](N)C(C)C)[C@@H]2C[C@@H]2C1n1cnc2c(NC(C3CC3)C3CC3)nc(Cl)nc21.Cl.Cl (stereo partly drawn) [Compound T1.1, (1R,5S)-4-(2-chloro-6-((dicyclopropylmethyl)amino)-9H-purin-9-yl)bicyclo[3.1.0]hexane-2,3-diyl (2S,2'S)-bis(2-amino-3-methylbutanoate), dihydrochloride salt]",Parent prodrug remained after 2 hours,[1],11%
"CC(C)[C@H](N)C(=O)N(c1nc(Cl)nc2c1ncn2[C@H]1[C@H](O)[C@H](O)[C@@H]2C[C@@H]21)C(C1CC1)C1CC1 [Compound T3.1, (S)-2-amino-N-(2-chloro-9-((1S,2R,3S,4R,5R)-3,4-dihydroxybicyclo[3.1.0]hexan-2-yl)-9H-purin-6-yl)-N-(dicyclopropylmethyl)-3-methylbutanamide]",Parent prodrug remained after 2 hours,[1],14%
"CC(C)[C@H](N)C(=O)OC[C@@]12C[C@@H]1[C@@H](n1cnc3c(NC(C4CC4)C4CC4)nc(Cl)nc31)[C@H](O)[C@@H]2O [Compound T4.1, ((1R,2R,3S,4R,5S)-4-(2-chloro-6-((dicyclopropylmethyl)amino)-9H-purin-9-yl)-2,3-dihydroxybicyclo[3.1.0]hexan-1-yl)methyl L-valinate]",Parent prodrug remained after 2 hours,[1],21%
"CNC(=O)[C@@]12C[C@@H]1[C@@H](n1cnc3c(NCc4cccc(Cl)c4)nc(C#Cc4ccc(F)c(F)c4)nc31)[C@H](OC(=O)[C@@H](N)C(C)C)[C@@H]2OC(=O)[C@@H](N)C(C)C [Compound T8.1, (1S,2R,3S,4R,5S)-4-(6-((3-chlorobenzyl)amino)-2-((3,4-difluorophenyl)ethynyl)-9H-purin-9-yl)-1-(methylcarbamoyl)bicyclo[3.1.0]hexane-2,3-diyl (2S,2'S)-bis(2-amino-3-methylbutanoate)]",Parent prodrug remained after 2 hours,[1],9%
"CNC(=O)[C@@]12C[C@@H]1[C@@H](n1cnc3c(NCc4cccc(Cl)c4)nc(C#Cc4ccc(F)c(F)c4)nc31)[C@@H]1OC3(CCN(C)CC3)O[C@@H]12 [Compound T9.8, (3aR,3bS,4aS,5R,5aS)-5-(6-((3-chlorobenzyl)amino)-2-((3,4-difluorophenyl)ethynyl)-9H-purin-9-yl)-N,1′-dimethyltetrahydrospiro[cyclopropa[3,4]cyclopenta[1,2-d][1,3]dioxole-2,4′-piperidine]-3b(3aH)-carboxamide]",Parent prodrug remained after 2 hours,[1],17%
C[C@@H]1CC(n2cnc3c(NC(C4CC4)C4CC4)nc(Cl)nc32)C(O)C1O (some centres unmarked) [Compound T13.1],Ki,[2],> 10 µM
same,Ki,[3],1 to 10 µM
same,Ki,[4],< 1 µM
C[C@@H]1CC(n2cnc3c(NC4C5(CC5)C45CC5)nc(Cl)nc32)C(O)C1O (some centres unmarked) [Compound T13.2],Ki,[2],1 to 10 µM
same,Ki,[3],> 10 µM
same,Ki,[4],< 1 µM
C[C@@H]1CC(n2cnc3c(NC(C4CCC4)C4CCC4)nc(Cl)nc32)C(O)C1O (some centres unmarked) [Compound T13.3],Ki,[2],> 10 µM
same,Ki,[3],> 10 µM
same,Ki,[4],< 1 µM
C[C@@H]1CC(n2cnc3c(NC(C4CC4)C4CC4)ncnc32)C(O)C1O (some centres unmarked) [Compound T13.4],Ki,[2],1 to 10 µM
same,Ki,[3],> 10 µM
same,Ki,[4],1 to 10 µM
C[C@@H]1CC(n2cnc3c(NC4C5(CC5)C45CC5)ncnc32)C(O)C1O (some centres unmarked) [Compound T13.5],Ki,[2],> 10 µM
same,Ki,[3],> 10 µM
same,Ki,[4],> 10 µM
C[C@@H]1CC(n2cnc3c(NC(C4CCC4)C4CCC4)ncnc32)C(O)C1O (some centres unmarked) [Compound T13.6],Ki,[2],1 to 10 µM
same,Ki,[3],> 10 µM
same,Ki,[4],1 to 10 µM
OC[C@H]1O[C@@H](n2cnc3c(NC(C4CC4)C4CC4)nc(Cl)nc32)[C@@H](O)C1O (some centres unmarked) [Compound T14.1],Ki,[2],1 to 10 µM
same,Ki,[3],> 10 µM
same,Ki,[4],1 to 10 µM
OC[C@H]1O[C@@H](n2cnc3c(NC4C5(CC5)C45CC5)nc(Cl)nc32)[C@@H](O)C1O (some centres unmarked) [Compound T14.2],Ki,[2],1 to 10 µM
same,Ki,[3],> 10 µM
same,Ki,[4],> 10 µM
OC[C@H]1O[C@@H](n2cnc3c(NC(C4CCC4)C4CCC4)nc(Cl)nc32)[C@@H](O)C1O (some centres unmarked) [Compound T14.3],Ki,[2],1 to 10 µM
same,Ki,[3],< 1 µM
same,Ki,[4],> 10 µM
OC[C@H]1O[C@@H](n2cnc3c(NC(C4CC4)C4CC4)ncnc32)[C@@H](O)C1O (some centres unmarked) [Compound T14.4],Ki,[2],1 to 10 µM
same,Ki,[3],1 to 10 µM
same,Ki,[4],> 10 µM
OC[C@H]1O[C@@H](n2cnc3c(NC4C5(CC5)C45CC5)ncnc32)[C@@H](O)C1O (some centres unmarked) [Compound T14.5],Ki,[2],> 10 µM
same,Ki,[3],> 10 µM
same,Ki,[4],1 to 10 µM
OC[C@H]1O[C@@H](n2cnc3c(NC(C4CCC4)C4CCC4)ncnc32)[C@@H](O)C1O (some centres unmarked) [Compound T14.6],Ki,[2],1 to 10 µM
same,Ki,[3],1 to 10 µM
same,Ki,[4],1 to 10 µM

# From patent US20260001881A1, “COMPOUNDS AND METHODS FOR MODULATION OF G-PROTEIN-COUPLED RECEPTORS” (PRIMETIME LIFE SCIENCES, LLC, priority 2018, published 2026)
